Results taken from patent US12006330B2, “Substituted macrocyclic compounds and related methods of treatment” (Alkermes, Inc., priority 2020, dated 2024).

What was measured:
[1] = target: T1, human orexin-2 receptor (OX2R) (Homo sapiens, UniProt O43614); experiment: Human OX2R IP1 assay; type: cell-based; details: T-Rex CHO cells stably overexpressing human OX2R; IP1 accumulation; 1 hr at 37 degrees C; mean EC50
T1 construct: expressed in transfected cells
T1 sequence (O43614 1-444): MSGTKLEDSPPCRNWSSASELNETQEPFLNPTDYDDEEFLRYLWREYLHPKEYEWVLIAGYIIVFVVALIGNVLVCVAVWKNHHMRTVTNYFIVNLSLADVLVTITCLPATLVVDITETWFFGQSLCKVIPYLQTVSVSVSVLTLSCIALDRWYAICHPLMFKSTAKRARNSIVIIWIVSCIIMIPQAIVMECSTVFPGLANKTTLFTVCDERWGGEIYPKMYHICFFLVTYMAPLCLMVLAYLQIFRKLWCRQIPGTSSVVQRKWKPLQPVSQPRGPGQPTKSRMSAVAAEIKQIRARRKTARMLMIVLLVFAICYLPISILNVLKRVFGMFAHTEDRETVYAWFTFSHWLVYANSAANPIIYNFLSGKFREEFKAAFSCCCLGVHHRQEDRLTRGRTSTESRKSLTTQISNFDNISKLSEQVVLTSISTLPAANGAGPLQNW
Method: T-Rex CHO cells stably overexpressing the human orexin-2 receptor (OX2R) were induced overnight with 1 μg/mL of doxycycline in a T225 flask. 24 hours post induction, cells were lifted with accutase and plated into a 384-well proxy plate at 30,000 cells/well. Cells were then treated with different test compounds in 1× stimulation buffer containing 10 mM Hepes, 1 mM CaCl2), 0.5 mM MgCl2, 4.2 mM KCl, 146 mM NaCl, 5.5 mM glucose, and 50 mM LiCl, pH 7.4, for 1 hr at 37 degrees C. Following incubation, the reaction was terminated by the addition of detection mix, which is composed of IP1-d2 and anti-IP1-cryptate diluted in lysis buffer as well as 1× stimulation buffer. The plates were allowed to incubate for 1 hour at room temperature and were then read in the EnVision® multimode plate reader, measuring inositol phosphate levels.
Cisbio IP1 is a cell-based functional assay quantifying the accumulation of inositol monophosphate (IP), a metabolite released as a result of orexin 2 receptor activation through the phospholipase C-Gq signaling pathway. This is a competitive immunoassay in which the IP1 produced by the cells upon receptor activation competes with the IP1 analog coupled to the d2 fluorophore (acceptor) for binding to an anti-IP1 monoclonal antibody labeled with Eu cryptate (donor). The measured HTRF-FRET based signal is inversely proportional to the IP1 concentration produced.
The EC50 values reported in Table 2 were obtained according to the human OX2R IP1 assay described above. Data are the mean EC50 values S.E.M. Reference Compound A is methyl (2R,3S)-3-((methylsulfonyl)amino)-2-(((cis-4-phenylcyclohexyl)oxy)methyl)-piperidine-1-carboxylate (Example 5 of PCT publication No. WO2017/135306). Reference Compound B is N-((2S,3S)-1-(2-hydroxy-2-methylpropanoyl)-2-((2,3′,5′-trifluorobiphenyl-3-yl)methyl)pyrrolidin-3-yl)methanesulfonamide (Example 483 of PCT publication No. WO2019/027058).

human hepatocytes = experiment: Hepatocytes stability assay (human hepatocytes); type: in vitro ADME; details: human hepatocytes; scaled hepatic clearance divided by liver blood flow (well-stirred model, fu assumed unity)
Method: (§1) In vitro metabolic stability was assessed using cryopreserved hepatocytes from male Sprague Dawley rats and a pool of 50 mixed gender humans (BioIVT, Baltimore, MD). The incubation mixtures were prepared by mixing 250 μL of pre-warmed KHB (Krebs-Henseleit buffer) containing 2×10^6 cell/mL of hepatocytes with 250 μL of pre-warmed KHB buffer containing 2 μM of test compounds in a 48-well plate, giving a final concentration of 1 μM test compound (0.1% DMSO) and 1×10^6 cell/mL of hepatocytes. The reaction mixture was incubated at 37 degrees C. A 50 μL aliquot of incubation mixture was taken at time points (0, 15, 30, 60, 120 and 240 minutes) and transferred into a 96-well plate containing 300 μL ice-cold acetonitrile (containing 30 ng/mL of labetalol and 10 ng/mL of Naltrexone-d3 as internal standards) and immediately placed in ice to terminate the reaction. Samples were centrifuged, and supernatants were transferred into 96-well plates for liquid chromatography with tandem mass spectrometry (LC-MS/MS) analysis to monitor the depletion of the test compound.
(§2) Data was calculated as percent remaining by assuming zero-minute time point peak area ratio (analyte/IS) as 100% and dividing remaining time point peak area ratios by zero-minute time point peak area ratio. Data were fitted to a first-order decay model to determine half-life. From a plot of log (ln) peak area against time, the slope of the line was determined. Subsequently, half-life (T1/2) and intrinsic clearance (CLint) were calculated using the equations below: Elimination rate constant (k)=(−slope) Half-life (T1/2) min=0.693/k Intrinsic Clearance (CLint) (mL/min/million cells)=(V×0.693)/T1/2 V=incubation volume mL/number of cells The in vitro T1/2 was converted to in vitro intrinsic clearance (CLint,hep) in units of mL/min/kg using the formula shown below:
(§3) [formula] The in vitro intrinsic clearance (CLint,hep) was scaled to in vivo hepatic clearance (CL,hep) using the following equation which was adapted from a well-stirred model.
(§4) [formula] where Q is the liver blood flow and fu is the fraction unbound (assumed to be unity in this case). All parameters used in the calculation are shown below (Table 4).
(§5) The extraction ratio (ER) was calculated by dividing the hepatic clearance of a compound to the liver blood flow. The data reported in Table 5 were obtained according to the human hepatocytes stability assay described above.

[2] = Hepatocytes stability assay (human hepatocytes); type: in vitro ADME; details: both sexes, human, cryopreserved hepatocytes, cryopreserved human hepatocytes (pool of 50 mixed gender); 1 μM test compound; 1×10^6 cell/mL; 37 degrees C; read-out: CLint (μL/min/million cells)
Method: as §1, §2, §3, §4, §5

MDR1 = experiment: MDCK-MDR1 permeability assay; type: in vitro ADME; details: dog, MDCK-MDR1, MDCK-MDR1 cells; for efflux ratio at 2 h, 3 μM: Papp B→A divided by Papp A→B, read-out: Efflux ratio (ER); for Papp A→B at 2 h, 3 μM: test compound 3 μM, 2 hours at 37 degrees C, apical to basolateral
Method: The bidirectional permeability (Apical to Basal and Basal to Apical directions) of test compounds in MDCK-MIDR1 cells were evaluated using MDCK-MIDR1 cells seeded in Solvo PreadyPort™ MDCK 96-well plate. Once the plate was received from ReadyCell (Barcelona, Spain), it was treated as per PreadyPort™ user's manual.
For the Apical to Basolateral (A→B) permeability, 80 μL of test compound (3 μM) co-dosed with LY (Lucifer Yellow) (100 μM) in HBSS (Hank's Balanced Salt Solution) assay buffer was added to the donor side (A) while 250 μL of HBSS buffer was added to the receiver side (B). For the Basolateral to Apical (B→A) permeability, 255 μL of test compound (3 μM) in HBSS assay buffer was added to the donor side (B) while 75 μL of HBSS buffer containing LY (100 μM) was added to the receiver side (A).
The plate was placed in an incubator set at 37 degrees C. After 10 minutes of pre-warming, 5 μL aliquot was taken from donor compartment and set aside as the dosing solution. The MDCK-MDR1 incubation plate was placed back into the incubator for 2 hours of incubation at 37 degrees C. After 2 hours of incubation, 25 μL and 5 μL aliquots were removed from the receiver and donor sides, respectively. To the 5 μL aliquots taken from the donor sides (before and after a 2-hour incubation) were diluted with 20 μL of the HBSS buffer. All samples were mixed with 150 μL with acetonitrile containing internal standard (IS) and 200 μL water, and analyzed by LC-MS/MS.
The apparent permeability (Papp) was calculated using the following formula: Papp=dQ/dt×1/A×C0 where: • dQ/dt: amount of translocated material over incubation time (nmol/s) • A: area of insert (0.14 cm^2 for PreadyPort™ MDR1-96) • C0: initial concentration of product applied in apical (A→B) or basal (B→A) compartment (nmol/mL)
The efflux ratio (ER) was measured by dividing the Papp (basolateral to apical direction) by Papp (apical to basolateral direction). It is a general measure of the involvement of active processes. An ER>2 is considered positive for active transport.
Percent recovery was measured using the following equation:
[formula] where: • VR: Volume of the receiver compartment (mL) • VD: Volume of the donor compartment (mL) • CN: Concentration of dosing solution (μM) collected after 10 minutes of incubation • CR^final: Receiver concentration at the end of the incubation (μM) • CD^final: Donor concentration at the end of the incubation (μM)
The data reported in Table 3 were obtained according to the MDCK-MDR1 permeability assay described above.

| SMILES | EC50 [1] [nM] | Extraction Ratio (ER) (human hepatocytes) | hepatocyte CLint at 1 μM [2] [µL/min/1e6 cells] | efflux ratio at 2 h, 3 μM (MDR1) | Papp A→B at 2 h, 3 μM (MDR1) [×10⁻⁶ cm/s] |
| --- | --- | --- | --- | --- | --- |
| C[C@@H]1CCN2C(=O)COc3ccccc3[C@H]3CC[C@H](CC3)OCC2[C@H]1NS(C)(=O)=O (mixture of isomers) [Compound 36] | < 10 | 0.71 | 17 | > 100 | 0.3 |
| CC[C@H](C)S(=O)(=O)N[C@H]1CCCN2C(=O)COc3ccccc3C3CCC(CC3)OC[C@@H]12 (stereo in doubt) [Compound 21] | < 10 | 0.84 | 36 | 52 | 0.8 |
| O=C1COc2ccccc2[C@H]2CC[C@H](CC2)OCC2[C@@H](NS(=O)(=O)C3CCOC3)CCCN12 (stereo in doubt) [Compound 22] | < 10 | 0.66 | 13 | > 100 | 0.18 |
| C[C@H](C(F)(F)F)S(=O)(=O)N[C@H]1CCCN2C(=O)COc3ccccc3C3CCC(CC3)OC[C@@H]12 (stereo in doubt) [Compound 23] | < 10 | 0.82 | 30 | 87 | 0.44 |
| C[C@@H](C(F)(F)F)S(=O)(=O)N[C@H]1CCCN2C(=O)COc3ccccc3C3CCC(CC3)OC[C@@H]12 (stereo in doubt) [Compound 24] | < 10 | 0.81 | 28 | 43 | 0.65 |
| CC[C@@H](C)S(=O)(=O)N[C@H]1CCCN2C(=O)COc3ccccc3C3CCC(CC3)OC[C@@H]12 (stereo in doubt) [Compound 25] | < 10 | 0.84 | 35 | 27 | 0.62 |

More lines, now with the values ahead:

| EC50 [1] [nM] | Extraction Ratio (ER) (human hepatocytes) | hepatocyte CLint at 1 μM [2] [µL/min/1e6 cells] | efflux ratio at 2 h, 3 μM (MDR1) | Papp A→B at 2 h, 3 μM (MDR1) [×10⁻⁶ cm/s] | SMILES |
| --- | --- | --- | --- | --- | --- |
| < 10 | 0.73 | 18 | 35 | 1.32 | O=C1COc2ccccc2[C@H]2CC[C@H](CC2)OCC2[C@@H](NS(=O)(=O)CF)CCCN12 (stereo in doubt) [Compound 38] |
|  | 0.63 | 12 | 27 | 0.79 | Cc1ccc2c(c1C)[C@H]1CC[C@H](CC1)OCC1[C@@H](NS(=O)(=O)C3CC3)CCCN1C(=O)CO2 (stereo in doubt) [Compound 77] |
|  | 0.52 | 7.2 | 74 | 0.41 | Cc1ccc2c(c1C)[C@H]1CC[C@H](CC1)OCC1[C@@H](NS(C)(=O)=O)CCCN1C(=O)CO2 (stereo in doubt) [Compound 78] |
|  | 0.87 | 46 | 3.8 | 5.7 | Cc1cccc2c1[C@H]1CC[C@H](CC1)OCC1[C@@H](NS(=O)(=O)C(C)C)CCN1C(=O)CO2 (stereo in doubt) [Compound 79] |
|  | 0.63 | 11 | 51 | 0.79 | O=C1COc2ccccc2[C@H]2CC[C@H](CC2)OCC2[C@@H](NS(=O)(=O)C3COC3)CCCN12 (stereo in doubt) [Compound 80] |
|  | <0.22 | < 1.9 | 59 | 0.58 | Cc1ncnc2c1[C@H]1CC[C@H](CC1)OCC1[C@@H](NS(C)(=O)=O)CCN1C(=O)CO2 (stereo in doubt) [Compound 82] |
|  | 0.28 | 2.6 | 46 | 0.85 | Cc1ncnc2c1[C@H]1CC[C@H](CC1)OCC1[C@@H](NS(=O)(=O)C3CC3)CCN1C(=O)CO2 (stereo in doubt) [Compound 83] |
|  | 0.38 | 4.1 | 24 | 1.9 | Cc1ncnc2c1[C@H]1CC[C@H](CC1)OCC1[C@@H](NS(=O)(=O)C(C)C)CCN1C(=O)CO2 (stereo in doubt) [Compound 86] |
|  | 0.50 | 6.7 | 25 | 0.84 | Cc1ccnc2c1[C@H]1CC[C@H](CC1)OCC1[C@@H](NS(=O)(=O)C3COC3)CCCN1C(=O)CO2 (stereo in doubt) [Compound 88] |
